In US20250290928A1, “METHOD, KIT AND DEVICE FOR DETECTING EXTRACELLULAR VESICLES” (priority 2022, published 2025):
“And” between values parts separate entries of the source, which are not always exact repeats. Identical values can stand only once. *: point of attachment. 5FAM = O=C1OC2(c3ccc(O)cc3Oc3cc(O)ccc32)c2ccc(C(=O)*)cc21; TQ2 = quencher

Columns and labels:
[1] = tested on: MMP14 in the HT1080 culture supernatants and the culture medium samples; assay: Digital detection of MMP14 active component in HT1080 culture supernatants, culture media and recovered liquids in wells; type: biochemical, Human; conditions: for original concentration in the culture supernatant / amount of the extracellular vesicles in the fraction (0.7 mL): Example 59, qEV; for original concentration in the culture supernatant: recovered from 3 mL of the culture supernatant; for amount of the extracellular vesicles in the fraction (0.7 mL): 4 h
Protocol: (§1) In addition, for detection of MMP14 activity, 1 mM Custom #1 was diluted with the buffer (4) to prepare a MMP14 detection solution containing 5 μM Custom #1 and 2 μM Alexa Fluor 647.

[2] = molecular target: T1, MMP14 in the HT1080 culture supernatants and the culture medium samples (Homo sapiens, UniProt P50281); assay: as above; type: biochemical; conditions: for MMP14 active component concentration: HT1080 culture Present
T1 construct: host or cells: HT1080 culture supernatant
Protocol: as §1

[3] = Experiment condition (I): FBS, HT1080 culture Present, only centrifugation, Reaction 4 hr
[4] = Experiment condition (I): FBS, HT1080 culture Present, only centrifugation, Reaction 24 hr
[5] = Experiment condition (II): FBS, HT1080 culture Present, centrifugation + filtration, Reaction 4 hr
[6] = Experiment condition (II): FBS, HT1080 culture Present, centrifugation + filtration, Reaction 24 hr
[7] = Experiment condition (III): FBS culture medium, HT1080 culture Absent, Reaction 4 hr
[8] = Experiment condition (III): FBS culture medium, HT1080 culture Absent, Reaction 24 hr
[9] = Experiment condition (IV): Exo-FBS, HT1080 culture Present, only centrifugation, Reaction 4 hr
[10] = Experiment condition (IV): Exo-FBS, HT1080 culture Present, only centrifugation, Reaction 24 hr
[11] = Experiment condition (IX): MEM culture medium, HT1080 culture Absent, Reaction 4 hr
[12] = Experiment condition (IX): MEM culture medium, HT1080 culture Absent, Reaction 24 hr
[13] = Experiment condition (V): Exo-FBS, HT1080 culture Present, centrifugation + filtration, Reaction 4 hr
[14] = Experiment condition (V): Exo-FBS, HT1080 culture Present, centrifugation + filtration, Reaction 24 hr
[15] = Experiment condition (VI): Exo-FBS culture medium, HT1080 culture Absent, Reaction 4 hr
[16] = Experiment condition (VI): Exo-FBS culture medium, HT1080 culture Absent, Reaction 24 hr
[17] = Experiment condition (VII): MEM, HT1080 culture Present, only centrifugation, Reaction 4 hr
[18] = Experiment condition (VII): MEM, HT1080 culture Present, only centrifugation, Reaction 24 hr
[19] = Experiment condition (VIII): MEM, HT1080 culture Present, centrifugation + filtration, Reaction 4 hr
[20] = Experiment condition (VIII): MEM, HT1080 culture Present, centrifugation + filtration, Reaction 24 hr
[21] = HT1080 culture supernatant recovered with exoEasy, Exo-FBS, Reaction 4 hr
[22] = HT1080 culture supernatant recovered with exoEasy, Exo-FBS, Reaction 24 hr
[23] = HT1080 culture supernatant recovered with exoEasy, MEM, Reaction 4 hr
[24] = HT1080 culture supernatant recovered with exoEasy, MEM, Reaction 24 hr
[25] = qEV recovered liquid, Exo-FBS, Fraction # 8, 4 hours of reaction
[26] = qEV recovered liquid, Exo-FBS, Fraction # 9, 4 hours of reaction
[27] = qEV recovered liquid, Exo-FBS, Fraction # 10, 4 hours of reaction
[28] = qEV recovered liquid, Exo-FBS, Fraction # 11, 4 hours of reaction
[29] = qEV recovered liquid, Exo-FBS, Fraction # 12, 4 hours of reaction
[30] = qEV recovered liquid, Exo-FBS, Fraction # 13, 4 hours of reaction
[31] = qEV recovered liquid, Exo-FBS, Fraction # 14, 4 hours of reaction
[32] = qEV recovered liquid, Exo-FBS, Fraction # 15, 4 hours of reaction
[33] = qEV recovered liquid, MEM, Fraction # 7, 4 hours of reaction
[34] = qEV recovered liquid, MEM, Fraction # 8, 4 hours of reaction
[35] = qEV recovered liquid, MEM, Fraction # 9, 4 hours of reaction
[36] = qEV recovered liquid, MEM, Fraction # 10, 4 hours of reaction
[37] = qEV recovered liquid, MEM, Fraction # 11, 4 hours of reaction
[38] = qEV recovered liquid, MEM, Fraction # 12, 4 hours of reaction
[39] = qEV recovered liquid, MEM, Fraction # 13, 4 hours of reaction
[40] = qEV recovered liquid, MEM, Fraction # 14, 4 hours of reaction

Substance: [5-FAM]GRIGFLRTAK(TQ2)[OH] (5FAM-GRIGFLRTAK(TQ2)-OH) [Custom #1]
- original concentration in the culture supernatant ([1]; Exo-FBS): 9.3259e+09 mL⁻¹
- amount of the extracellular vesicles in the fraction (0.7 mL) ([1]; Fraction #7 of the MEM): 1.114×10^10
- amount of the extracellular vesicles in the fraction (0.7 mL) ([1]; Fraction #8 of the Exo-FBS): 0.8283×10^10
- amount of the extracellular vesicles in the fraction (0.7 mL) ([1]; Fraction #8 of the MEM): 0.5245×10^10
- amount of the extracellular vesicles in the fraction (0.7 mL) ([1]; Fraction #9 of the Exo-FBS): 1.969×10^10
- original concentration in the culture supernatant ([1]; MEM): 5.4612e+09 mL⁻¹
- Expected value λ [1, 3]: 0.9029
- Number of positives [1, 3]: 16,696
- Positive ratio [1, 3]: 0.5946
- Expected value λ [1, 4]: 0.9382
- Number of positives [1, 4]: 17,091
- Positive ratio [1, 4]: 0.6087
- Expected value λ [1, 5]: 0.7605
- Number of positives [1, 5]: 14,954
- Positive ratio [1, 5]: 0.5325
- Expected value λ [1, 6]: 0.7723 and 0.7722
- Number of positives [1, 6]: 15,051
- Positive ratio [1, 6]: 0.538
- Expected value λ [1, 7]: 0.6588
- Number of positives [1, 7]: 13,549
- Positive ratio [1, 7]: 0.4825
- Expected value λ [1, 8]: 0.686
- Number of positives [1, 8]: 13,900
- Positive ratio [1, 8]: 0.4964
- Expected value λ [1, 9]: 0.5033
- Number of positives [1, 9]: 11,105
- Positive ratio [1, 9]: 0.3955
- Expected value λ [1, 10]: 0.4954
- Number of positives [1, 10]: 10,939
- Positive ratio [1, 10]: 0.3906
- Expected value λ [1, 11]: 0.00011
- Number of positives [1, 11]: 3
- Positive ratio [1, 11]: 0.00011
- Expected value λ [1, 12]: 0.00014
- Number of positives [1, 12]: 4
- Positive ratio [1, 12]: 0.00014
- Expected value λ [1, 13]: 0.5687
- Number of positives [1, 13]: 12,180
- Positive ratio [1, 13]: 0.4338
- Expected value λ [1, 14]: 0.5771
- Number of positives [1, 14]: 12,313
- Positive ratio [1, 14]: 0.4385
- Expected value λ [1, 15]: 0.6217
- Number of positives [1, 15]: 12,998
- Positive ratio [1, 15]: 0.4629
- Expected value λ [1, 16]: 0.6019
- Number of positives [1, 16]: 12,698
- Positive ratio [1, 16]: 0.4522
- Expected value λ [1, 17]: 0.00335
- Number of positives [1, 17]: 94
- Positive ratio [1, 17]: 0.00335
- Expected value λ [1, 18]: 0.01005
- Number of positives [1, 18]: 280
- Positive ratio [1, 18]: 0.01005
- Expected value λ [1, 19]: 0.00514
- Number of positives [1, 19]: 144
- Positive ratio [1, 19]: 0.00513
- Expected value λ [1, 20]: 0.01107
- Number of positives [1, 20]: 309
- Positive ratio [1, 20]: 0.01107
- Expected value λ [1, 21]: 0.3476
- Number of positives [1, 21]: 8,245
- Positive ratio [1, 21]: 0.2936
- Expected value λ [1, 22]: 0.5132
- Number of positives [1, 22]: 11,272
- Positive ratio [1, 22]: 0.4014
- Expected value λ [1, 23]: 0.00471
- Number of positives [1, 23]: 132
- Positive ratio [1, 23]: 0.0047
- Expected value λ [1, 24]: 0.01107
- Number of positives [1, 24]: 308
- Positive ratio [1, 24]: 0.01101
- Expected value λ [1, 25]: 0.2958
- Number of positives [1, 25]: 7,164
- Positive ratio [1, 25]: 0.2561
- Expected value λ [1, 26]: 0.7034
- Number of positives [1, 26]: 14,130
- Positive ratio [1, 26]: 0.5051
- Expected value λ [1, 27]: 1.421
- Number of positives [1, 27]: 21,264
- Positive ratio [1, 27]: 0.7586
- Expected value λ [1, 28]: 1.453
- Number of positives [1, 28]: 21,512
- Positive ratio [1, 28]: 0.7661
- Expected value λ [1, 29]: 1.465
- Number of positives [1, 29]: 21,591
- Positive ratio [1, 29]: 0.7689
- Expected value λ [1, 30]: 1.3102
- Number of positives [1, 30]: 20,505
- Positive ratio [1, 30]: 0.7302
- Expected value λ [1, 31]: 1.962
- Number of positives [1, 31]: 24,077
- Positive ratio [1, 31]: 0.8594
- Expected value λ [1, 32]: 3.133
- Number of positives [1, 32]: 26,856
- Positive ratio [1, 32]: 0.9564
- Expected value λ [1, 33]: 0.3978
- Number of positives [1, 33]: 9,216
- Positive ratio [1, 33]: 0.3282
- Expected value λ [1, 34]: 0.1873
- Number of positives [1, 34]: 4,791
- Positive ratio [1, 34]: 0.1708
- Expected value λ [1, 35]: 0.1593
- Number of positives [1, 35]: 4,129
- Positive ratio [1, 35]: 0.1472
- Expected value λ [1, 36]: 0.0176
- Number of positives [1, 36]: 490
- Positive ratio [1, 36]: 0.01745
- Expected value λ [1, 37]: 0.01104
- Number of positives [1, 37]: 308
- Positive ratio [1, 37]: 0.01098
- Expected value λ [1, 38]: 0.01161
- Number of positives [1, 38]: 324
- Positive ratio [1, 38]: 0.01154
- Expected value λ [1, 39]: 0.02444
- Number of positives [1, 39]: 678
- Positive ratio [1, 39]: 0.02415
- Expected value λ [1, 40]: 0.00075
- Number of positives [1, 40]: 21
- Positive ratio [1, 40]: 0.00075
- MMP14 active component concentration ([2]; Experiment condition (I): FBS, only centrifugation, Reaction 4 hr): 3.611e+11 mL⁻¹
- MMP14 active component concentration ([2]; Experiment condition (I): FBS, only centrifugation, Reaction 24 hr): 3.753e+11 mL⁻¹
- MMP14 active component concentration ([2]; Experiment condition (II): FBS, centrifugation + filtration, Reaction 4 hr): 3.042e+11 mL⁻¹
- MMP14 active component concentration ([2]; Experiment condition (II): FBS, centrifugation + filtration, Reaction 24 hr): 3.0889e+11 mL⁻¹
- MMP14 active component concentration ([2]; Experiment condition (IV): Exo-FBS, only centrifugation, Reaction 4 hr): 2.013e+11 mL⁻¹
- MMP14 active component concentration ([2]; Experiment condition (IV): Exo-FBS, only centrifugation, Reaction 24 hr): 1.981e+11 mL⁻¹
- MMP14 active component concentration ([2]; Experiment condition (V): Exo-FBS, centrifugation + filtration, Reaction 4 hr): 2.275e+11 mL⁻¹
- MMP14 active component concentration ([2]; Experiment condition (V): Exo-FBS, centrifugation + filtration, Reaction 24 hr): 2.309e+11 mL⁻¹
- MMP14 active component concentration ([2]; Experiment condition (VII): MEM, only centrifugation, Reaction 4 hr): 1.341e+09 mL⁻¹
- MMP14 active component concentration ([2]; Experiment condition (VII): MEM, only centrifugation, Reaction 24 hr): 4.02e+09 mL⁻¹
- MMP14 active component concentration ([2]; Experiment condition (VIII): MEM, centrifugation + filtration, Reaction 4 hr): 2.057e+09 mL⁻¹
- MMP14 active component concentration ([2]; Experiment condition (VIII): MEM, centrifugation + filtration, Reaction 24 hr): 4.426e+09 mL⁻¹
- MMP14 extracellular vesicle concentration [2, 21]: 1.39e+11 mL⁻¹
- MMP14 extracellular vesicle concentration [2, 22]: 2.053e+11 mL⁻¹
- MMP14 extracellular vesicle concentration [2, 23]: 1.885e+09 mL⁻¹
- MMP14 extracellular vesicle concentration [2, 24]: 4.428e+09 mL⁻¹
- MMP14 extracellular vesicle concentration [2, 25]: 1.1833e+10 mL⁻¹
- MMP14 extracellular vesicle concentration [2, 26]: 2.8135e+10 mL⁻¹
- MMP14 extracellular vesicle concentration [2, 27]: 5.6859e+10 mL⁻¹
- MMP14 extracellular vesicle concentration [2, 28]: 5.8114e+10 mL⁻¹
- MMP14 extracellular vesicle concentration [2, 29]: 5.8598e+10 mL⁻¹
- MMP14 extracellular vesicle concentration [2, 30]: 5.2408e+10 mL⁻¹
- MMP14 extracellular vesicle concentration [2, 31]: 7.8483e+10 mL⁻¹
- MMP14 extracellular vesicle concentration [2, 32]: 1.2532e+11 mL⁻¹
- MMP14 extracellular vesicle concentration [2, 33]: 1.5912e+10 mL⁻¹
- MMP14 extracellular vesicle concentration [2, 34]: 7.493e+09 mL⁻¹
- MMP14 extracellular vesicle concentration [2, 35]: 6.37e+09 mL⁻¹
- MMP14 extracellular vesicle concentration [2, 36]: 7.04e+08 mL⁻¹
- MMP14 extracellular vesicle concentration [2, 37]: 4.42e+08 mL⁻¹
- MMP14 extracellular vesicle concentration [2, 38]: 4.64e+08 mL⁻¹
- MMP14 extracellular vesicle concentration [2, 39]: 9.78e+08 mL⁻¹
- MMP14 extracellular vesicle concentration [2, 40]: 3e+07 mL⁻¹
